Results taken from US10351549B2, “Amide derivatives having multimodal activity against pain” (priority 2015, dated 2019).
pKi: −log10 of the molar value.

Biological target: human σ1 receptor and human μ-opioid receptor
Assay: Human σ1 receptor and human μ-opioid receptor radioligand assays (μ and σ1 dual binding)
Set-up: key to μ and σ1 dual binding: +: Both Ki-μ and Ki-σ1>=500 nM; ++: One Ki<500 nM while the other Ki is >=500 nM; +++: Both Ki-μ and Ki-σ1<500 nM; ++++: Both Ki-μ and K1-σ1<100 nM
Conditions: joint class for Ki at σ1 ([3H](+)-pentazocine, transfected HEK-293 membranes) and Ki at μ-opioid ([3H]-DAMGO, transfected CHO-K1 membranes)

SMILES: CCOCCN(C)C1CCN(CCN(C(=O)CC)c2cccc(C(F)(F)F)n2)C1 (centres unmarked) [Example 16]
- pKi: ≤ 6.30

SMILES: CCC(=O)N(CCN1CCC(N(C)Cc2ccccc2)C1)c1cccc(C(F)(F)F)n1 (centres unmarked) [Example 6]
- μ and σ1 dual binding: ++

SMILES: CCC(=O)N(CCN1CC(N(C)Cc2ccccc2)C1)c1cccc(C(F)(F)F)n1 [Example 9, N-(2-(3-(benzyl(methyl)amino)azetidin-1-yl)ethyl)-N-(6-(trifluoromethyl)pyridin-2-yl)propionamide]
- μ and σ1 dual binding: ++

SMILES: CCC(=O)N(CCN1CC2CN(CC(C)C)CC2C1)c1cccc(C(F)(F)F)n1 (centres unmarked) [Example 18, N-(2-(5-isobutylhexahydropyrrolo[3,4-c]pyrrol-2(1H)-yl)ethyl)-N-(6-(trifluoromethyl)pyridin-2-yl)propionamide]
- μ and σ1 dual binding: ++

SMILES: CCC(=O)N(CCN1CC[C@@H](N(C)Cc2ccccc2)C1)c1ccccc1 [Example 4, (R)-N-(2-(3-(benzyl(methyl)amino)pyrrolidin-1-yl)ethyl)-N-phenylpropionamide]
- pKi: > 6.30

SMILES: CCC(=O)N(CCN1CCC(N(C)Cc2ccccc2)C1)c1ccccc1 (centres unmarked) [Example 2, N-(2-(3-(benzyl(methyl)amino)pyrrolidin-1-yl)ethyl)-N-phenylpropionamide]
- pKi: > 6.30

SMILES: CCC(=O)N(CCN1CC[C@H](N(C)Cc2ccccc2)C1)c1ccccc1 [Example 3, (S)-N-(2-(3-(benzyl(methyl)amino)pyrrolidin-1-yl)ethyl)-N-phenylpropionamide]
- μ and σ1 dual binding: ++

SMILES: CCC(=O)N(CCN1CCC(N(C)Cc2ccccc2)C1)c1ncccc1F (centres unmarked) [Example 1, N-(2-(3-(Benzyl(methyl)amino)pyrrolidin-1-yl)ethyl)-N-(3-fluoropyridin-2-yl)propionamide]
- μ and σ1 dual binding: ++

SMILES: CCOCCN(C)C1CCN(CCN(C(=O)CC)c2cccc(C(F)(F)F)n2)C1 (centres unmarked) [Example 17]
- pKi: ≤ 6.30

SMILES: CCC(=O)N(CCN1CCC(N(C)Cc2ccccc2)C1)c1cccc(C(F)(F)F)n1 (centres unmarked) [Example 5, N-(2-(3-(benzyl(methyl)amino)pyrrolidin-1-yl)ethyl)-N-(6-(trifluoromethyl)pyridin-2-yl)propionamide]
- pKi: ≤ 6.30

SMILES: CCC(=O)N(CCN1CCC(N(C)CC(C)C)C1)c1cccc(C(F)(F)F)n1 (centres unmarked) [Example 12, N-(2-(3-(isobutyl(methyl)amino)pyrrolidin-1-yl)ethyl)-N-(6-(trifluoromethyl)pyridin-2-yl)propionamide]
- pKi: ≤ 6.30
